According to article PMC3914206:

Key:
Type in all cases: binding
panel of 442 kinases [1] = target: T1, panel of 442 kinases (Homo sapiens, UniProt O00506); settings: kinase YSK1; compound concentration 10 µM
T1 construct: purchased KINOMEscan
Text: (§1) We assessed the selectivity of members of this scaffold using the KINOMEscan methodology across a near comprehensive panel of 442 kinases [[18,27]].

panel of 442 kinases [2] = target: T2, panel of 442 kinases (Homo sapiens, UniProt Q16539); settings: Compound Concentration 10 µM
T2 construct: purchased KINOMEscan
T2 sequence (Q16539 whole entry): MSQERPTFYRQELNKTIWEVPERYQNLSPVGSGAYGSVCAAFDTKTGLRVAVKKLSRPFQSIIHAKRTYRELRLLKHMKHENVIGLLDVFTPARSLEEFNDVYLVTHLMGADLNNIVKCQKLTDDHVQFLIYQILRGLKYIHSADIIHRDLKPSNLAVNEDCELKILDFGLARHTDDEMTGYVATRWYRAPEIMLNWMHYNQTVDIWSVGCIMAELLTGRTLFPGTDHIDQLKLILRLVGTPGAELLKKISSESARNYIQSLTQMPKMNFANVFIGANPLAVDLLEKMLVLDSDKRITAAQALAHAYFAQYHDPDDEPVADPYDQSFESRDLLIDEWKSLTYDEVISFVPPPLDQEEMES
Text: as §1

panel of 442 kinases [3] = target: T3, panel of 442 kinases (Homo sapiens, UniProt O15264); settings: Compound Concentration 10 µM
T3 construct: purchased KINOMEscan
T3 sequence (O15264 1-365): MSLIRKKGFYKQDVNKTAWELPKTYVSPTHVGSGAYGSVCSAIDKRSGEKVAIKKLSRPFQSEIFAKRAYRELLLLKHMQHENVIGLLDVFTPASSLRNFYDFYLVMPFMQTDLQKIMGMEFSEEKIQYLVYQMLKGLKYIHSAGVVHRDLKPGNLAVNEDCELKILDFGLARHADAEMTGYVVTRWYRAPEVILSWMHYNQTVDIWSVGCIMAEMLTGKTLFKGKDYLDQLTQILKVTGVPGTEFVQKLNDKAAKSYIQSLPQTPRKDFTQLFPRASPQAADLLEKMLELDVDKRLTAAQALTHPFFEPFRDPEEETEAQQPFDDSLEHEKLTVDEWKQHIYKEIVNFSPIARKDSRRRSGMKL
Text: as §1

T1 sequence (O00506 whole entry): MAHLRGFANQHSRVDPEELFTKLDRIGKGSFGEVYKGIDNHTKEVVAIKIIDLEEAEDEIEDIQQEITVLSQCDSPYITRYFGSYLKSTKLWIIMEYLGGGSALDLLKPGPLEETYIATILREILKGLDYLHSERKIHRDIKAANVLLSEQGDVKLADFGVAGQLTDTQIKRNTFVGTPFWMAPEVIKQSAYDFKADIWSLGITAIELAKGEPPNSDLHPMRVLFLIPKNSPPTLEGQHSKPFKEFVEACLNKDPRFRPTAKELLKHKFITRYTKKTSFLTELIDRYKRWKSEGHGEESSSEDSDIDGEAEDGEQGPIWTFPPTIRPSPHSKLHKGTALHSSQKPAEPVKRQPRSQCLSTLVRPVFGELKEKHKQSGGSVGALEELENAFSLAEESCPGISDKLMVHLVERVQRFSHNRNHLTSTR

SMILES | % Ctrl, YSK1 (panel of 442 kinases [1]) | KINOMEscan: p38-alpha (panel of 442 kinases [2]) | KINOMEscan: p38-delta (panel of 442 kinases [3])
COc1cc(C(=O)N2CCC(N3CCN(C)CC3)CC2)ccc1Nc1ncc2c(n1)N(C1CCCC1)c1ccccc1C(=O)N2C [Compound 25, 11-cyclopentyl-2-((2-methoxy-4-(4-(4-methylpiperazin-1-yl)piperidine-1-carbonyl)phenyl)amino)-5-methyl-5H-benzo[e]pyrimido[5,4-b][1,4]diazepin-6(11H)-one] | 66 % Ctrl | 99 | 100
CCOc1cc(C(=O)N2CCC(N3CCN(C)CC3)CC2)ccc1Nc1ncc2c(n1)N(C1CCCC1)c1ccccc1C(=O)N2C [Compound 26] | 90 % Ctrl | 94 | 100
COc1cc(C(=O)N2CCC(N3CCN(C)CC3)CC2)ccc1Nc1ncc2c(n1)N1CCc3cccc(c31)C(=O)N2C [Compound 24] | 60 % Ctrl | – | –
COc1cc(C(=O)N2CCC(N3CCN(C)CC3)CC2)ccc1Nc1ncc2c(n1)N(C)c1ccccc1C(=O)N2C [15 (LRRK2-IN-1)] | 68 % Ctrl | 87 | 72
